Laboratory results reported in ChEMBL document CHEMBL1201862, “PubChem BioAssay data set” (2004).
The source made the active and inactive calls. Unless noted, no cut-off for these calls is given here.

Experiments:
[1] = tested on: BJ; experiment: BJ-TERT fibroblast viability loss – cell-based, RAS-independent, luminescence, dose response (AID 1933); assay type: functional; conditions: Homo sapiens
[2] = tested on: BJ; experiment: BJ-TERT-LT-ST fibroblast viability loss – cell-based, RAS-independent, luminescence, dose response (AID 1935); assay type: functional; conditions: Homo sapiens;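 note: BJ fibroblasts immortalized with TERT plus LT and ST oncogenes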
[3] = DRD fibroblast viability loss – cell-based, non-viral oncogenic, luminescence, dose response (AID 1934); assay type: functional; conditions: Homo sapiens
[4] = molecular target: Exodeoxyribonuclease V (Escherichia coli (strain K12), UniProt P04993+P07648+P08394); experiment: RecBCD inhibition via phage-restricted bacterial growth – absorbance, V66 E. coli, mutant T4 phage, counter-screen for AddAB inhibitor project, dose response (AID 492957); assay type: functional, cell-based, Escherichia coli str. K-12 substr. MG1655
[5] = Counterscreen for AddAB inhibitors: absorbance-based bacterial cell-based high throughput dose response assay for inhibitors of bacterial viability. [Related pubchem assays (depositor defined):AID435030, AID449728, AID449731, AID488942, AID488955, AID488956]; assay type: functional
[6] = tested on: Vero; experiment: cells; assay type: functional; conditions: Chlorocebus sabaeus
[7] = molecular target: T1, Estrogen receptor (Homo sapiens, UniProt P03372);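 note: potency for inhibiting coactivator peptide recruitment to the receptor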
T1 sequence (P03372 whole entry): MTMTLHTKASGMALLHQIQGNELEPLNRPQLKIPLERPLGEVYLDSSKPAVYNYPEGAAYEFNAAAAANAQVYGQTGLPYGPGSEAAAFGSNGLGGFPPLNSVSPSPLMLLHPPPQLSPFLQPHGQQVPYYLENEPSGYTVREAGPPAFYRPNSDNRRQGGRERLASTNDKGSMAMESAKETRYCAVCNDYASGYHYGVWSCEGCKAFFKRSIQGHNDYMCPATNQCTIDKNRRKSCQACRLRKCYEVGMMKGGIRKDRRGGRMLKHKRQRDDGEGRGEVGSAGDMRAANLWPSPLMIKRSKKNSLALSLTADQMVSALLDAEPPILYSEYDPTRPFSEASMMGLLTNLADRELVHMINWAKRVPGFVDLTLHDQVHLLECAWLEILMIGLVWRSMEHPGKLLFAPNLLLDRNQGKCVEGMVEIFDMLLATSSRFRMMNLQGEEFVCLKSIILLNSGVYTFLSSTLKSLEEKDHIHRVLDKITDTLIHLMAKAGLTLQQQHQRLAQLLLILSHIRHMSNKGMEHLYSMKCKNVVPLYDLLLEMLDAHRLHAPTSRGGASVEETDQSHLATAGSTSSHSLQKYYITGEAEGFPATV

[8] = molecular target: Trypsin (Sus scrofa, UniProt P00761); experiment: trypsin protease activity blockade – biochemical, quenched peptide fluorescence, cherry-pick, selectivity assay for Rce1 protease inhibitor project, dose response (AID 488789)
[9] = molecular target: CAAX prenyl protease 1 (Saccharomyces cerevisiae S288c, UniProt P47154); experiment: yeast CAAX protease Ste24 inhibition – biochemical, S. cerevisiae, plate reader, cherry-pick, dose response (AID 488815)
[10] = molecular target: T2, Mu-type opioid receptor (Homo sapiens, UniProt P35372); experiment: SAR Analysis of Antagonists of the MOR Receptor using an Image-Based Assay - Set 2. [Related pubchem assays (depositor defined):AID1777, AID1785, AID1786, AID1966, AID2133, AID2136, AID2284, AID2285, AID2420]; assay type: functional
[11] = molecular target: T3, Kappa-type opioid receptor (Homo sapiens, UniProt P41145); experiment: SAR analysis of Antagonists of the Kappa Opioid Receptor (KOR) using an Image-Based Assay - Set 2. [Related pubchem assays (depositor defined):AID1777, AID1785, AID1786, AID1966, AID2133, AID2136, AID2284, AID2285, AID2348]; assay type: functional
[12] = molecular target: T2, Mu-type opioid receptor; experiment: SAR Analysis of Agonists of the MOR Receptor using an Image-Based Assay - Set 2. [Related pubchem assays (depositor defined):AID1777, AID1785, AID1786, AID1966, AID2133, AID2136, AID2284, AID2285, AID2352]; assay type: functional
[13] = molecular target: T3, Kappa-type opioid receptor; experiment: SAR analysis of small molecule agonists of the kappa opioid receptor via a luminescent beta-arrestin assay - Set 2. [Related pubchem assays (depositor defined):AID1777, AID1785, AID1786, AID1966, AID2133, AID2136, AID2284, AID449737]; assay type: functional
[14] = molecular target: T4, Delta-type opioid receptor (Homo sapiens, UniProt P41143); experiment: SAR Analysis of Agonists of the DOR Receptor using an Image-Based Assay - Set 2. [Related pubchem assays (depositor defined):AID1777, AID1785, AID1786, AID1966, AID2133, AID2136, AID2284, AID2285, AID2370]; assay type: functional
[15] = molecular target: T4, Delta-type opioid receptor; experiment: SAR Analysis of Antagonists of the DOR Receptor using an Image-Based Assay - Set 2. [Related pubchem assays (depositor defined):AID1777, AID1785, AID1786, AID1966, AID2133, AID2136, AID2284, AID2285, AID2357]; assay type: functional
[16] = molecular target: T3, Kappa-type opioid receptor; experiment: SAR analysis of Agonists of the Kappa Opioid Receptor (KOR) using an Image-Based Assay - Set 2. [Related pubchem assays (depositor defined):AID1777, AID1786, AID1966, AID2133, AID2136, AID2284, AID2285, AID2359]; assay type: functional
[17] = molecular target: Voltage-dependent T-type calcium channel subunit alpha-1H (Homo sapiens, UniProt O95180); experiment: inhibition of CACNA1H calcium flux – cell-based, SynthLib3 library, HEK293 Cav3.2, fluorescence (AID 493041); assay type: functional

T3 sequence (P41145 whole entry): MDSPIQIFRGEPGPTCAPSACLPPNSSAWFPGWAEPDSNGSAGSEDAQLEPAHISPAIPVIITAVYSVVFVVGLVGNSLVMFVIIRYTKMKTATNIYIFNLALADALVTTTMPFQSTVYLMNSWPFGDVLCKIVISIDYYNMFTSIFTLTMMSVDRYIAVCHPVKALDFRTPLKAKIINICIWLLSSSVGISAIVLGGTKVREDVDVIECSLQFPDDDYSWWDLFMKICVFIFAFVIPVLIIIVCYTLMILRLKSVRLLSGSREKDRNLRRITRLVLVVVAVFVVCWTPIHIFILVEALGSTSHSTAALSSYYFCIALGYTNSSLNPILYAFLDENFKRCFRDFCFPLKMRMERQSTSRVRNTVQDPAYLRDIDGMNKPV
T2 sequence (P35372 whole entry): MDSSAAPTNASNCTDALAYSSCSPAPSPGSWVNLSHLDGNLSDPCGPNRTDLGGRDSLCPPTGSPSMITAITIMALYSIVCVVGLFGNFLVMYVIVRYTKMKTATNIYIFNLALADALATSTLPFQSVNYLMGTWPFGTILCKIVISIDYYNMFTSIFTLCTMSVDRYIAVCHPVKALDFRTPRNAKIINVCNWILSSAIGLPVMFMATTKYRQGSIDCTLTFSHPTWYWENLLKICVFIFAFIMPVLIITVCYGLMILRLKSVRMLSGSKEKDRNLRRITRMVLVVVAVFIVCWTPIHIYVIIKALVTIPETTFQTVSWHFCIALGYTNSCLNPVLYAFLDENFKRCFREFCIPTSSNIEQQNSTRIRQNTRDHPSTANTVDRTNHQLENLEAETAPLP
T4 sequence (P41143 whole entry): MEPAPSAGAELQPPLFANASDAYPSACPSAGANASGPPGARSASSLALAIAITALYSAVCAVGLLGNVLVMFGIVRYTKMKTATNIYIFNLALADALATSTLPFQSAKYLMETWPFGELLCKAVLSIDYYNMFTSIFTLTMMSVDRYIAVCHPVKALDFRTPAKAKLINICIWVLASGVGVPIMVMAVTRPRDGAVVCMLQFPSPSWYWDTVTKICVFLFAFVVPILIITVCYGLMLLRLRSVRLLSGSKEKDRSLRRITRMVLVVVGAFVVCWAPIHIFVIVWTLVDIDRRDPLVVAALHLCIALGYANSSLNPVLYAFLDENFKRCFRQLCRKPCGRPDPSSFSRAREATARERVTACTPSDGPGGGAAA
Sequence of Exodeoxyribonuclease V (P04993 whole entry): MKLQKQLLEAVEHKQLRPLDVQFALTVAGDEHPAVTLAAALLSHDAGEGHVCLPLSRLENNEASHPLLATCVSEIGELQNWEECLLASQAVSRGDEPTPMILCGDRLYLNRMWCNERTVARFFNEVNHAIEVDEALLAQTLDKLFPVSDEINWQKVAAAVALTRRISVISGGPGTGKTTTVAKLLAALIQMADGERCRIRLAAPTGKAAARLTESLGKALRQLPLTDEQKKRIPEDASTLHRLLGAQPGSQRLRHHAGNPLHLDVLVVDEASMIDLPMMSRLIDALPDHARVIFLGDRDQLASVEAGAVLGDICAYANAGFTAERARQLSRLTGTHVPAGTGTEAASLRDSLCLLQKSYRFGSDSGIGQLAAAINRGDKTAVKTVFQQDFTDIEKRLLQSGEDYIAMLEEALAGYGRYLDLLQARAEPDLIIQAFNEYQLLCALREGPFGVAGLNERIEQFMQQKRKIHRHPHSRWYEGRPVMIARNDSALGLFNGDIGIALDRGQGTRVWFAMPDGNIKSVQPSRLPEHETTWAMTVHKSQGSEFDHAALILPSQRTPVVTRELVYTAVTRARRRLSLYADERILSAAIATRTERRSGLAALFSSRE
Sequence of Exodeoxyribonuclease V (P07648 whole entry): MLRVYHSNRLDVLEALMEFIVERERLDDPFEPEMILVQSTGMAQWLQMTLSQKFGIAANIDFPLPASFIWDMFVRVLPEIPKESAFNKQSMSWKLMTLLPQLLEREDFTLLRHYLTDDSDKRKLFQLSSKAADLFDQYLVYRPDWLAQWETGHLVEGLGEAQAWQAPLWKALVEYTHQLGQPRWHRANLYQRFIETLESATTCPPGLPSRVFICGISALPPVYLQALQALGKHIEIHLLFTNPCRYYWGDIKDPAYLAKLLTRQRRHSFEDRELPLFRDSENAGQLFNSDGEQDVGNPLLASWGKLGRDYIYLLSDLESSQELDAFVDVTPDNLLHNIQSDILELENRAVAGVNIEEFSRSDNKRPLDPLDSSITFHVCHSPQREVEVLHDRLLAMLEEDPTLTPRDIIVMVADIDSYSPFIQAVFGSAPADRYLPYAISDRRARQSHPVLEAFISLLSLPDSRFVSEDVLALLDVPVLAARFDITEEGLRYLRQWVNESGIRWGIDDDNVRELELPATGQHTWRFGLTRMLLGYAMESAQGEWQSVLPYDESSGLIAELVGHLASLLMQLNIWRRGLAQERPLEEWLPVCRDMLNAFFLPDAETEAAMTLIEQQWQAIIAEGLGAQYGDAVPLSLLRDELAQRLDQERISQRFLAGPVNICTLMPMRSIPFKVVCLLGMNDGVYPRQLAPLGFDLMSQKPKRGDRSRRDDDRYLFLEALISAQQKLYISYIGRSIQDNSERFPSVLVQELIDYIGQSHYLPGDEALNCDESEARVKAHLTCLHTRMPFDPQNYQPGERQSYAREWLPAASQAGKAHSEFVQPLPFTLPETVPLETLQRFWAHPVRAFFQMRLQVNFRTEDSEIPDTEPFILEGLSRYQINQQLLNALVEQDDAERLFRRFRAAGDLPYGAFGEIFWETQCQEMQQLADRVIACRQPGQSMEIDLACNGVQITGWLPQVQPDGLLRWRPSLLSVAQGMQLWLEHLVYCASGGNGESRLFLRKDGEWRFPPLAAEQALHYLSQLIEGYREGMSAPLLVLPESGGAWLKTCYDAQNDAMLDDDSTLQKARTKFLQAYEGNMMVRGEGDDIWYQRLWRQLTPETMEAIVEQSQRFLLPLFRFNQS
Sequence of Exodeoxyribonuclease V (P08394 whole entry): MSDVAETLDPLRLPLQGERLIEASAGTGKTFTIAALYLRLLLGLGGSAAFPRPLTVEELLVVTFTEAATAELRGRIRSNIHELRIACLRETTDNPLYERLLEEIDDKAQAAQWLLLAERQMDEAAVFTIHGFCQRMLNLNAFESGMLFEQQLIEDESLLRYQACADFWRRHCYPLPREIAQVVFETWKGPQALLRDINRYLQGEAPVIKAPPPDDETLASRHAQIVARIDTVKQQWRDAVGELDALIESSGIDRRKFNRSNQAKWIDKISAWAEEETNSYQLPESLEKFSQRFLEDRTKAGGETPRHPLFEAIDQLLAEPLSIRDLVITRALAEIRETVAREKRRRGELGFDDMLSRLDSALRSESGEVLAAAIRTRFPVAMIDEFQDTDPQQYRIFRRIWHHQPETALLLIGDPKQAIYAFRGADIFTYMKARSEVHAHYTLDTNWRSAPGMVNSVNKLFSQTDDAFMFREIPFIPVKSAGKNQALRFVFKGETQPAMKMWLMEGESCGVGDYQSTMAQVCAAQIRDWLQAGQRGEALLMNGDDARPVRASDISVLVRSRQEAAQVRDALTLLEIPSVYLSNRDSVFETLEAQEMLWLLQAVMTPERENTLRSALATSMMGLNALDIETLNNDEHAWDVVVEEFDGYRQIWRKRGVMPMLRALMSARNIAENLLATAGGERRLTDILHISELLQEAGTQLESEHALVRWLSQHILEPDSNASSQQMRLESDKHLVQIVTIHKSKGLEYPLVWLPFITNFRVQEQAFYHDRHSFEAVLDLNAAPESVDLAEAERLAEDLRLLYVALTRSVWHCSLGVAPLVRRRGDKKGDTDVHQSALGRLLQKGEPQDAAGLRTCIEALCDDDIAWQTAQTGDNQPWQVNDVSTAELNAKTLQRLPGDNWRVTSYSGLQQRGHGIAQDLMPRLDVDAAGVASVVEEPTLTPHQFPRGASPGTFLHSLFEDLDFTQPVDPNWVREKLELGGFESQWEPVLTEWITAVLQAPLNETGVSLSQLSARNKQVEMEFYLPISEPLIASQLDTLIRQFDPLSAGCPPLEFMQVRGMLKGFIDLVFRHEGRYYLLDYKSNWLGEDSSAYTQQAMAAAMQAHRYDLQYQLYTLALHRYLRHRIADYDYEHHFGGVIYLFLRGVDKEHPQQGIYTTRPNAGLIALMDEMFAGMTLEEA
Sequence of Trypsin (P00761 whole entry): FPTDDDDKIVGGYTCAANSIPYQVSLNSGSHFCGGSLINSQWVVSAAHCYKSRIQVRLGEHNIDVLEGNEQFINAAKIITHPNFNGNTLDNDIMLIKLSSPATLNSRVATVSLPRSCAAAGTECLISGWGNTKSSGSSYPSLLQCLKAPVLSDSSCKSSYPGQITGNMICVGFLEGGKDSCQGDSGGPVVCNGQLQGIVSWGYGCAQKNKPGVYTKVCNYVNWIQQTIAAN
Sequence of CAAX prenyl protease 1 (P47154 whole entry): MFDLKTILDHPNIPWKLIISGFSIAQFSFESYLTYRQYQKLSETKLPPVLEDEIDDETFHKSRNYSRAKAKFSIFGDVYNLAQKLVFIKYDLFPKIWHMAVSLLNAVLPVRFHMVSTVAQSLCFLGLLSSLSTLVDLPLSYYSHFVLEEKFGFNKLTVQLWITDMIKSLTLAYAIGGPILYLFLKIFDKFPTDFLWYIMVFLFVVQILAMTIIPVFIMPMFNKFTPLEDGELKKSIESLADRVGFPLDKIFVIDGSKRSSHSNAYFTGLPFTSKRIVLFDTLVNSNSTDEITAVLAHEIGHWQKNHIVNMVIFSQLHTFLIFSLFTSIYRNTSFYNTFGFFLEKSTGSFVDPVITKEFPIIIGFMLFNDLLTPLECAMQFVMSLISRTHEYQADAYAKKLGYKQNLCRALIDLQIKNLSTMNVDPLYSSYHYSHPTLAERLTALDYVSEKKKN

O=Nc1ccc(O)c2ncccc12
EC50 [1]: 12.9 µM (active)
EC50 [2]: 8.73 µM (active)
EC50 [3]: 8.56 µM (active)
IC50 [4]: > 119 µM (inactive)
IC50 [5]: 35.6 µM (inactive)
CC50 [6]: 9.69 µM (active)

O=C(CSc1n[nH]c(-c2ccc(S(=O)(=O)N3CCCCC3)cc2)n1)Nc1nccs1
IC50 [7]: 47.2 µM (not active)
AC50 [8]: 21.3 µM (active)
AC50 [9]: 8.82 µM (active)

Brc1ccc(CSc2nnc(-c3ccccn3)n2Cc2cccs2)cc1
IC50 [10]: > 32 µM (inactive)
IC50 [11]: > 32 µM (inactive)
EC50 [12]: > 32 µM (inactive)
EC50 [13]: 1.85 µM (active)
EC50 [14]: > 32 µM (inactive)
IC50 [15]: > 32 µM (inactive)
EC50 [16]: 1.1 µM (active)

CC(C)CCN1C[C@@H]2C(CNC(=O)c3cc(Cl)cc(Cl)c3)[C@@H]2C1 (some centres not stated)
EC50 [17]: 1.9 µM (active)
